Our source for the IC50 values is patent US12344595B2, “2-amino-n-phenyl-nicotinamides as NAV1.8 inhibitors” (Merck Sharp & Dohme LLC, priority 2018, dated 2025).

One may read the IC50 as the concentration that inhibits the measured activity by half. Low readings indicate inhibition by little substance, high ones a need for much substance.

The target in this assay is human Nav1.8 (Homo sapiens (Human), UniProt Q9Y5Y9). The assay can be described thus: Nav1.8 Qube automated patch-clamp assay. The class given is cell-based. The conditions noted are these: Nav1.8 Qube Assay; human Nav1.8 channels stably expressed in HEK 293 cells. Here is the method: Qube® Assay Experimental Procedure
human Nav1.8, sequence (Q9Y5Y9 whole entry): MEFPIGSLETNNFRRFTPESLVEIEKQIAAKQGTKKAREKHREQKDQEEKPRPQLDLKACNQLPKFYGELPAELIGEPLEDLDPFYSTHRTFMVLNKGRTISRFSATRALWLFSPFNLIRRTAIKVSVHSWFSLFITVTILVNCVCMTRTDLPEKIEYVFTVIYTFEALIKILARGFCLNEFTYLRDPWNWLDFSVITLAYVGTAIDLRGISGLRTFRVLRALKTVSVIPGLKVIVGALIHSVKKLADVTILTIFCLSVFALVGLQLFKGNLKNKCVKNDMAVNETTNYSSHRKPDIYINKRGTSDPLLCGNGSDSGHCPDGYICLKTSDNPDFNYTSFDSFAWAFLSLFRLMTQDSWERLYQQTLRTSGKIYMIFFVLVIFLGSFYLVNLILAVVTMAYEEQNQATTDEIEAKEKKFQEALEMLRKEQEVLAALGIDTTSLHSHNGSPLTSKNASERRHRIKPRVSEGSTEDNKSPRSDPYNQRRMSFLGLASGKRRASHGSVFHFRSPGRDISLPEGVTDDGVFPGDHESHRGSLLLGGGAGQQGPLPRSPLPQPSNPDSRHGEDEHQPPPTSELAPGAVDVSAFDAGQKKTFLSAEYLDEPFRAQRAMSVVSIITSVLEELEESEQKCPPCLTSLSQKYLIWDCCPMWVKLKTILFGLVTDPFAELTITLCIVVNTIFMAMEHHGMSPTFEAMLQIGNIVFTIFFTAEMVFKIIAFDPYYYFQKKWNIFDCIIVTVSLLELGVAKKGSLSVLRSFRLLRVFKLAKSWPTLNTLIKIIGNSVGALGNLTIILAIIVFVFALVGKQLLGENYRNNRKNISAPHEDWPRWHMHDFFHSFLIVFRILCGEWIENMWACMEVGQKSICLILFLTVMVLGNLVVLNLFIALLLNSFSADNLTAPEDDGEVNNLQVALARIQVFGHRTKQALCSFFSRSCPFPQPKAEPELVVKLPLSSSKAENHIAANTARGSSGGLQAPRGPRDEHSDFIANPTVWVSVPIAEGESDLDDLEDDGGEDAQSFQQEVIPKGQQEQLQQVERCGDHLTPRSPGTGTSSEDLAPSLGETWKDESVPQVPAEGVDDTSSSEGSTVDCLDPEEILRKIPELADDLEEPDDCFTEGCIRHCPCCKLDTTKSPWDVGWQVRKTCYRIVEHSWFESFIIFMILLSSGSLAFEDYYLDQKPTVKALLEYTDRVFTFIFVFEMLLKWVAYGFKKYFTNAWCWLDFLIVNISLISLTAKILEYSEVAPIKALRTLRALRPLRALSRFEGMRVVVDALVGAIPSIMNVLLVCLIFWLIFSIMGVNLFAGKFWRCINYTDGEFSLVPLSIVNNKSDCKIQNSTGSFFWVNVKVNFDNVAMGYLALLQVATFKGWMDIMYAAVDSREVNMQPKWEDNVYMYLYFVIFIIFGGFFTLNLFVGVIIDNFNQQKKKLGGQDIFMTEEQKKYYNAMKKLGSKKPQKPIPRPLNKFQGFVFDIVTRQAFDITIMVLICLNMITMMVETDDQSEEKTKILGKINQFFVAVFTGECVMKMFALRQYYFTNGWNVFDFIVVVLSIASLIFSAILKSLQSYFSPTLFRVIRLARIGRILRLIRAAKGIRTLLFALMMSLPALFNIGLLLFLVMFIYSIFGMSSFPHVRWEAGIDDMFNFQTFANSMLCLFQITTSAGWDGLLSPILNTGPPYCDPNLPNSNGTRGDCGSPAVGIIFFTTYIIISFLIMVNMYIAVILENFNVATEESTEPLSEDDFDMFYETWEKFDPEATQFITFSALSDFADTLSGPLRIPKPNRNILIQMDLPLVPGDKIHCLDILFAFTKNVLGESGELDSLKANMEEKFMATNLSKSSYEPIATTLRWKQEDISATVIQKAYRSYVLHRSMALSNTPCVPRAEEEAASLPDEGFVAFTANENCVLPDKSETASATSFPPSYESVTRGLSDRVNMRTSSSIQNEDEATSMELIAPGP
Compounds were tested on human Nav1.8 and Nav1.5 channels stably expressed in human embryo kidney (HEK) 293 cells. Sodium current measurements on Qube® were conducted as follows: automated 384-well patch-clamp assays on the Qube® platform (Sophion Biosciences) were used to measure the inhibition of sodium flow through human Nav1.8 and Nav1.5 channels. Whole-cell voltage-clamp recordings were performed in QChips® (Sophion Biosciences) at room temperature. Nav1.8 current measurements on Qube® were obtained as follows: Nav1.8 currents were elicited with a 10 second 1 Hertz (Hz) pulse train from a holding potential of −90 millivolts (mV), delivered to the cells once per minute in the control condition (DMSO only) and after compound addition. The 1 hertz pulse train stimulation consisted of ten test pulses to 10 millivolt (mV) for 20 milliseconds (ms), each of which was followed by a 980 millisecond repolarization to −67 millivolts. At the end of the 10 second pulse train stimulation, a 5 second hyperpolarization step to −100 millivolt (mV) was used to recover Nav1.8 from fast inactivation. The peak currents elicited by the 1st and 10th test pulses were used to determine IC50 values for resting inhibition and inactivated state inhibition. Nav1.5 current measurements on Qube® were obtained as follows: Nav1.5 currents were elicited with a 20 second 3 Hertz pulse train in the control condition (DMSO only) and after compound addition. The pulse train consisted of sixty 20 millisecond test pulses to 0 millivolt from a holding potential of −80 millivolt (mV). The average peak currents elicited by the last 3 test pulses were used to determine IC50 values for Nav1.5 inhibition.
The following buffers were used for the Qube® recordings: External buffer for Nav1.8 Qube® recording: 150 NaCl, 2 CaCl2, 5 KCl, 1 Mg Cl2, 10 HEPES, 12 Dextrose; External buffer for Qube® Nav1.5 recording: 120 N-Methyl-D-Glucamine, 40 NaCl, 1 KCl, 2.7 CaCl2, 5 HEPES, 0.5 MgCl2; and Internal buffer for Qube® recording: 120 CsF, 30 CsCl, 10 EGTA, 5 HEPES, 5 NaF, 2 MgCl2.
For all Qube® experiments offline analysis was used to determine percent inhibition as a function of drug concentration. IC50 values were determined by fitting to the Hill equation.
In turn, `CS(=O)(=O)c1cccc(NC(=O)c2ccc(Cl)nc2N2CCCC(F)(F)CC2)c1` [Example 9, 6-chloro-2-(4,4-difluoroazepan-1-yl)-N-(3-methylsulfonyl-phenyl)pyridine-3-carboxamide] displayed an IC50 of 7 nM. To `Cc1ccc(C(=O)Nc2cccc(S(C)(=O)=O)c2)c(N2CCCC(F)(F)CC2)n1` [Example 10, 2-(4,4-difluoroazepan-1-yl)-6-methyl-N-(3-methylsulfonylphenyl) pyridine-3-carboxamide] belongs 9.2 nM. For `COc1ccc(C(=O)Nc2cccc(S(C)(=O)=O)c2)c(N2CCCC(F)(F)CC2)n1` [Example 11, 2-(4,4-difluoroazepan-1-yl)-6-methoxy-N-(3-methylsulfonylphenyl) pyridine-3-carboxamide], the IC50 is 31 nM.

For `Cc1nc(N2CCCCC2)c(C(=O)Nc2cccc(S(C)(=O)=O)c2)c(C)c1Cl` [Example 12, 5-chloro-4,6-dimethyl-N-(3-methylsulfonyl-phenyl)-2-(1-piperidyl)pyridine-3-carboxamide], 54 nM corresponded to half-maximal inhibition (IC50).

On to `Cc1nc(N2CCC3(CC2)CC3)c(C(=O)Nc2cccc(C(N)=O)c2)c(C)c1Cl` [Example 13, 2-(6-azaspiro[2.5]-octan-6-yl)-N-(3-carbamoyl-phenyl)-5-chloro-4,6-dimethyl-pyridine-3-carboxamide], for which inhibition was half-maximal at 13 nM (IC50). Turning to `NC(=O)c1cccc(NC(=O)c2ccc(Cl)nc2N2CCCC(F)(F)CC2)c1` [Example 14, N-(3-carbamoyl-phenyl)-6-chloro-2-(4,4-difluoroazepan-1-yl)pyridine-3-carboxamide], half-maximal inhibition (IC50) was put at 18 nM. Next, `NC(=O)c1cccc(NC(=O)c2cc(Cl)cnc2N2CCCC(F)(F)CC2)c1` [Example 15, N-(3-carbamoyl-phenyl)-5-chloro-2-(4,4-difluoroazepan-1-yl)pyridine-3-carboxamide]: 19 nM; `Cc1nc(N2CCC(F)(F)CC2)c(C(=O)Nc2cccc(C(N)=O)c2)c(C)c1Cl` [Example 16, N-(3-carbamoyl-phenyl)-5-chloro-2-(4,4-difluoro-1-piperidyl)-4,6-dimethyl-pyridine-3-carboxamide]: 24 nM; `Cc1cc(Cl)nc(N2CCCC(F)(F)CC2)c1C(=O)Nc1cccc(C(N)=O)c1` [Example 17, N-(3-carbamoyl-phenyl)-6-chloro-2-(4,4-difluoroazepan-1-yl)-4-methyl-pyridine-3-carboxamide]: 29 nM. Next, `COc1ccc(C(=O)Nc2cccc(C(N)=O)c2)c(N2CCCC(F)(F)CC2)n1` [Example 18, N-(3-carbamoyl-phenyl)-2-(4,4-difluoroazepan-1-yl)-6-methoxy-pyridine-3-carboxamide]: 52 nM; `Cc1nc(N2CCCCC2)c(C(=O)Nc2cccc(C(N)=O)c2)c(C)c1Cl` [Example 19, N-(3-carbamoyl-phenyl)-5-chloro-4,6-dimethyl-2-(1-piperidyl)pyridine-3-carboxamide]: 295 nM. `Cc1nc(N2CCC(F)(F)CC2)c(C(=O)Nc2cccc(C#N)c2)c(C)c1Cl` [Example 20, 5-chloro-N-(3-cyanophenyl)-2-(4,4-difluoro-1-piperidyl)-4,6-dimethyl-pyridine-3-carboxamide] returned an IC50 of 74 nM. In turn, `N#Cc1cccc(NC(=O)c2cc(C(F)(F)F)cnc2N2CCCCCC2)c1` [Example 21, 2-(azepan-1-yl)-N-(3-cyanophenyl)-5-(trifluoromethyl)pyridine-3-carboxamide] returned an IC50 of 254 nM. In turn, `N#Cc1ccc(NC(=O)c2cc(C(F)(F)F)cnc2N2CCCCCC2)cc1` [Example 22, 2-(azepan-1-yl)-N-(4-cyanophenyl)-5-(trifluoromethyl)pyridine-3-carboxamide] had an IC50 of 470 nM. In turn, `Cc1cnc(N2CCCCCC2)c(C(=O)Nc2cccc(S(N)(=O)=O)c2)c1` [Example 23, 2-(azepan-1-yl)-5-methyl-N-(3-sulfamoyl-phenyl)nicotinamide] yielded an IC50 of 112 nM. Compared with the last molecule, the IC50 is about 4.2-fold lower. For `O=C(Nc1cccc(S(=O)(=O)N2CCCC2)c1)c1cc(C(F)(F)F)cnc1N1CCCCCC1` [Example 24, 2-(azepan-1-yl)-N-(3-pyrrolidin-1-yl-sulfonylphenyl)-5-(trifluoromethyl)-pyridine-3-carboxamide], the IC50 is 4430 nM. This IC50 lies about 40-fold higher than the previous one.

`NS(=O)(=O)c1ccc(O)c(NC(=O)c2cc(C(F)(F)F)cnc2N2CCCCCC2)c1` [Example 25, 2-(azepan-1-yl)-N-(2-hydroxy-5-sulfamoyl-phenyl)-5-(trifluoro-methyl)pyridine-3-carboxamide] registered an IC50 of 337 nM. On to `Cc1nc(N2CCCCCC2)c(C(=O)Nc2cccc(S(N)(=O)=O)c2)cc1Cl` [Example 26, 2-(azepan-1-yl)-5-chloro-6-methyl-N-(3-sulfamoylphenyl)nicotinanmide], for which the IC50 stood at 2.1 nM. Compared with the last molecule, the IC50 is about 160-fold lower. For `Cc1ccc(-c2cnc(N3CCCCC3)c(C(=O)Nc3cccc(S(N)(=O)=O)c3)c2)cc1` [Example 27, 2-(piperidin-1-yl)-N-(3-sulfamoylphenyl)-5-(p-tolyl)nicotinamide], the IC50 stood at 4430 nM. Next, `NS(=O)(=O)c1c(F)ccc(NC(=O)c2cc(C(F)(F)F)cnc2N2CCC(F)(F)CC2)c1F` [Example 28, N-(2,4-difluoro-3-sulfamoylphenyl)-2-(4,4-difluoropiperidin-1-yl)-5-(trifluoromethyl)nicotinamide]: 211 nM. Next, `Cc1cc(Cl)nc(N2CCCCCC2)c1C(=O)Nc1cccc(S(N)(=O)=O)c1` [Example 29, 2-(azepan-1-yl)-6-chloro-4-methyl-N-(3-sulfamoylphenyl)nicotinamide]: 10 nM; `Cc1cc(C(=O)Nc2cccc(S(N)(=O)=O)c2)c(N2CCCCCC2)nc1C` [Example 30, 2-(azepan-1-yl)-5,6-dimethyl-N-(3-sulfamoylphenyl) pyridine-3-carboxamide]: 12 nM. In the case of `NS(=O)(=O)c1cccc(NC(=O)c2cc(Cl)cnc2N2CCCCCC2)c1` [Example 31, 2-(azepan-1-yl)-5-chloro-N-(3-sulfamoyl-phenyl)pyridine-3-carboxamide], the IC50 was found to be 22 nM. `NS(=O)(=O)c1cccc(NC(=O)c2cc(Br)cnc2N2CCCCCC2)c1` [Example 32, 2-(azepan-1-yl)-5-bromo-N-(3-sulfamoyl-phenyl)pyridine-3-carboxamide] returned an IC50 of 24 nM.

Take `NS(=O)(=O)c1cccc(NC(=O)c2c(Br)ccnc2N2CCCCCC2)c1` [Example 33, 2-(azepan-1-yl)-4-bromo-N-(3-sulfamoyl-phenyl)pyridine-3-carboxamide]: the IC50 stood at 44 nM. To `NS(=O)(=O)c1cccc(NC(=O)c2cc(-c3cccnc3)cnc2N2CCCCCC2)c1` [Example 34, 2-(azepan-1-yl)-5-(3-pyridyl)-N-(3-sulfamoyl-phenyl)pyridine-3-carboxamide] belongs 603 nM. To `CS(=O)(=O)c1cccc(NC(=O)c2cc(Br)cnc2N2CCCCCC2)c1` [Example 35, 2-(azepan-1-yl)-5-bromo-N-(3-methylsulfonyl-phenyl)pyridine-3-carboxamide] belongs 29 nM. To `Cc1cc(C(=O)Nc2cccc(S(C)(=O)=O)c2)c(N2CCCCCC2)nc1C` [Example 36, 2-(azepan-1-yl)-5,6-dimethyl-N-(3-methyl-sulfonylphenyl)pyridine-3-carboxamide] belongs 31 nM. As for `Cc1cc(C(=O)Nc2cccc(C(N)=O)c2)c(N2CCCCCC2)nc1C` [Example 37, 2-(azepan-1-yl)-N-(3-carbamoylphenyl)-5,6-dimethyl-pyridine-3-carboxamide], half-maximal inhibition (IC50) required 106 nM. This IC50 is about 3.4-fold higher than that of the molecule before.

Regarding `NC(=O)c1cccc(NC(=O)c2cc(Br)cnc2N2CCCCCC2)c1` [Example 38, 2-(azepan-1-yl)-5-bromo-N-(3-carbamoyl-phenyl)pyridine-3-carboxamide], inhibition was half-maximal at 279 nM (IC50). To `NS(=O)(=O)c1cccc(NC(=O)c2cc(OC(F)(F)F)cnc2N2CCCC(F)(F)CC2)c1` [Example 39, 2-(4,4-difluoroazepan-1-yl)-N-(3-sulfamoylphenyl)-5-(trifluoromethoxy)nicotinamide] belongs 2.5 nM; to `CC(C)(C)c1nc(N2CCCCC2)c(C(=O)Nc2cccc(S(N)(=O)=O)c2)cc1Cl` [Example 40, 6-(tert-butyl)-5-chloro-2-(piperidin-1-yl)-N-(3-sulfamoylphenyl)nicotinamide], 1180 nM. As to `CC(C)(C)c1ccc(C(=O)Nc2cccc(S(C)(=O)=O)c2)c(N2CCCCC2)n1` [Example 41, 6-tert-butyl-N-(3-methylsulfonylphenyl)-2-(1-piperidyl)pyridine-3-carboxamide], 4630 nM corresponded to half-maximal inhibition (IC50).
